Assay results: article PMC11638965, “Leveraging Dual-Ligase Recruitment to Enhance Protein Degradation via a Heterotrivalent Proteolysis Targeting Chimera” (Journal of the American Chemical Society, 2024)
Where two headings read alike, the source gives them in different places.

Columns and labels:
Test in all cases: Cell viability assay (CellTiter-Glo)
Assay type in all cases: cell-based, human
[1] = test system: RKO CRBN/VHL dKO cells; conditions: Homo sapiens, 72 h, read-out: EC50 RKO CRBN/VHL dKO
Description: (§1) RKO WT, VHL KO, CRBN KO and CRBN/VHL dKO cells were cultured in Dulbecco’s modified Eagle’s medium supplemented with 10% FCS and 1% penicillin–streptomycin. RKO CRBN KO and VHL KO were generated previously.[45] RKO CRBN/VHL dKO cells were generated by transiently expressing pSpCas9(BB)-2A-GFP (PX458) (Addgene 48138) loaded with a short guide RNA (sgRNA) targeting VHL (Fwd: […], Rev: […]) in RKO CRBN KO cells. Clones were single cell seeded and checked for VHL and CRBN double deletion via Western blot or PCR on genomic DNA (gDNA).
(§2) Cells were seeded in 96-well plates at a cell density of 3750 cells per well and treated for 3 days with DMSO or drug at ten √10 serial diluted concentrations. Starting concentration for all drugs was 10 μM, and each treatment was performed in biological triplicates. Cell viability was assessed using the CellTiter-Glo assay (CellTiter-Glo Luminescent Cell Viability Assay, Promega G7573) according to manufacturer instructions. Luminescence signal was measured on a Multilabel Plate Reader Platform Victor X3 model 2030 (PerkinElmer). Survival curves and EC50 values were determined using GraphPad Prism v.10.0.3 by fitting a nonlinear regression to the log10-transformed drug concentration and the relative viability after normalization of each data point to the mean luminescence of the lowest drug concentration.

[2] = test system: RKO VHL KO cells
Description: as §1, §2

[3] = test system: RKO CRBN KO cells; conditions: Homo sapiens, 72 h, 500 pM to 10 μM, 3 days (Figure 10, Table S6)

Q: `Cc1ncsc1-c1ccc(CNC(=O)[C@@H]2C[C@@H](O)CN2C(=O)[C@@H](NC(=O)COCC(COCCOCCOCCNc2cc3c(cc2F)C(=O)N(C2CCC(=O)NC2=O)C3=O)(COCCOCCOCCOC(=O)C[C@@H]2N=C(c3ccc(Cl)cc3)c3c(sc(C)c3C)-n3c(C)nnc32)COCCOCCOCCOC(=O)C[C@@H]2N=C(c3ccc(Cl)cc3)c3c(sc(C)c3C)-n3c(C)nnc32)C(C)(C)C)cc1` (mixture of isomers) [AB3124 (86)] was tested. Which EC50 ([1]; 316 pM to 10 μM, 3 days, n = 3 (Figures 5 and 8C, Table S5)) did it give?
A: 16 nM

Q: What about the EC50 ([2]; 316 pM to 10 μM, 3 days, n = 3 (Figures 5 and 8C, Table S5), listed as 86) of the same molecule?
A: 34 nM

Q: And the EC50 ([2]; Homo sapiens, 72 h, 316 pM to 10 μM, 3 days, n = 3 (Figures 5 and 8C, Table S5))?
A: 62 nM

Q: For `Cc1ncsc1-c1ccc([C@H](C)NC(=O)[C@@H]2C[C@H](O)CN2C(=O)[C@@H](NC(=O)COCC(C)(COCCOCCOCCNc2cc3c(cc2F)C(=O)N(C2CCC(=O)N(C)C2=O)C3=O)COCCOCCOCCOC(=O)C[C@@H]2N=C(c3ccc(Cl)cc3)c3c(sc(C)c3C)-n3c(C)nnc32)C(C)(C)C)cc1` (mixture of isomers) [neg-cis-AB3067 (95), (17S)-11-((2-(2-(2-((6-fluoro-2-(1-methyl-2,6-dioxopiperidin-3-yl)-1,3-dioxoisoindolin-5-yl)amino)ethoxy)ethoxy)ethoxy)methyl)-17-((2S,4S)-4-hydroxy-2-(((S)-1-(4-(4-methylthiazol-5-yl)phenyl)ethyl)carbamoyl)pyrrolidine-1-carbonyl)-11,18,18-trimethyl-15-oxo-3,6,9,13-tetraoxa-16-azanonadecyl 2-((S)-4-(4-chlorophenyl)-2,3,9-trimethyl-6H-thieno[3,2-f][1,2,4]triazolo[4,3-a][1,4]diazepin-6-yl)acetate], which EC50 ([1]; 500 pM to 10 μM, 3 days (Figure 10, Table S6)) is on record?
A: 657 nM

Q: What about the EC50 ([2]; Homo sapiens, 72 h, 500 pM to 10 μM, 3 days (Figure 10, Table S6)) of the same molecule?
A: 522 nM

Q: And the EC50 [3]?
A: 586 nM
